Values quoted from earlier work in EP2545940A9, “Parenteral compositions” (hameln rds gmbh, priority 2011, dated 2013).
Like-named read-outs stand apart in the source and are kept apart here.

Settings: 25°C

C[C@H](/C=C/[C@H](C)C(C)(C)O)[C@H]1CC[C@H]2/C(=C/C=C3C[C@@H](O)C[C@H](O)C3)CCC[C@]12C [Paracalcin, (1 R, 3R, 7E, 17β) -17 - [(1 R, 2E, 4S)-5-Hydroxy-1 ,4,5-trimethylhex-2-en-1-yl] -9,10-secoestra-5,7-Dien-1 ,3-diol]
Paracalcin (cosolvent: Ethanol 0.00, Propylene glycol 0.302, Water 0.698): 0.58 µg/mL | Paracalcin (cosolvent: Ethanol 0.00, Propylene glycol 0.506, Water 0.494): 14.21 µg/mL | Paracalcin (cosolvent: Ethanol 0.100, Propylene glycol 0.257, Water 0.643): 2.88 µg/mL | Paracalcin (cosolvent: Ethanol 0.199, Propylene glycol 0.207, Water 0.594): 15.94 µg/mL | Paracalcin (cosolvent: Ethanol 0.201, Propylene glycol 0.308, Water 0.491): 72.90 µg/mL | Paracalcin (cosolvent: Ethanol 0.299, Propylene glycol 0.00, Water 0.701): 6.82 µg/mL | Paracalcin (cosolvent: Ethanol 0.347, Propylene glycol 0.102, Water 0.551): 119.37 µg/mL | Paracalcin (cosolvent: Ethanol 0.498, Propylene glycol 0.00, Water 0.502): 601.63 µg/mL
